Results on 4 molecules are retold here after patent US20200360322A1, “FORMULATIONS AND DOSAGE FORMS FOR ENHANCING PERFORMANCE OR RECOVERY FROM STRESS” (ACTIVATE BIO PHYSICS CORP., priority 2017, published 2020).

For experiment [1] the following is noted: four- to seven-day alcohol poisoning or acute barbiturate poisoning.
Experiment [2] relates to animal after a 10-minute stop of blood flow. Conditions: cited from earlier work.
The target of the next experiment is SUCNR1 (Homo sapiens, UniProt Q9BXA5). The settings on record: cited from earlier work.
SUCNR1, sequence (Q9BXA5 whole entry, species assumed): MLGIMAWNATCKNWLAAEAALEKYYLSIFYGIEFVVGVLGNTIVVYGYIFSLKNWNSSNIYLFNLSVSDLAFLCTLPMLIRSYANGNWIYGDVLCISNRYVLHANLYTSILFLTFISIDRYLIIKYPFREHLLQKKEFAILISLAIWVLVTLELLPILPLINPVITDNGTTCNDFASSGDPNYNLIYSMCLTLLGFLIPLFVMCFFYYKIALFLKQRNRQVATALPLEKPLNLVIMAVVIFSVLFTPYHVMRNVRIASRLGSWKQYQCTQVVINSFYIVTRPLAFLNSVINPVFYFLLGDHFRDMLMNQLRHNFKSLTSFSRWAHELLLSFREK

As for `O=C(O)CCC(=O)O` [natural conformer of succinic acid, succinic acid], the severe intoxication result in experiment [1] is “contributes to the prevention of severe intoxication”.
As for `O=C([O-])CCC(=O)[O-].[Na+].[Na+]` [sodium succinate], the “condition of the central nervous system” value in experiment [2] (abdominal injection after the stop of blood flow) was “not only fails to improve, but can aggravate, the condition of the central nervous system”.
`O=C(O)CCC(=O)O` [succinate]: on SUCNR1, the “concentration in interstitial fluid and blood sufficient for SUCNR1 activation and HIF dimer stabilization” value is 2.10^−4 mol; the “concentration needed to activate SUCNR1 or to stabilize HIF” value was 150 ± 180 µmol.
As for `O=C(O)CCC(=O)O` [succinic acid], the “central nervous system recovery” value in experiment [2] (oral administration) is given as “improves the central nervous system's recovery”.
